Earlier results in patent US20210069354A1, “METHOD OF TRANSPORTING AN AGENT ACROSS BLOOD-BRAIN, BLOOD-COCHLEAR OR BLOOD-CEREBROSPINAL FLUID BARRIER” (Oklahoma Medical Research Foundation, priority 2015, published 2021).

Details: normal brain

## O=C([O-])CN(CCN(CC(=O)[O-])CC(=O)O)CCN(CC(=O)[O-])CC(=O)O.[Gd+3] [Gd-DTPA, gadolinium diethylene triamine penta acetic acid]
  crossing of the BBB: does not cross the BBB
